Test results taken from article PMC9818789, “Identification of Small-Molecule Bioactive Constituents from the Leaves of Vaccinium bracteatum Confirms It as a Potential Functional Food with Health Benefits” (Foods, 2023).

What was measured:
[1] = DPPH radical scavenging assay; conditions: mean ± SD (n = 3); NA = not active (<50% radical scavenging activity at the highest testing concentration of 200 μM); read-out: DPPH free radical scavenging activity IC50
Procedure: The antioxidant effect of the VBL constituents was assessed by besting their free radical scavenging activity with the ABTS (diammonium 2,2′-azino-bis (3-ethylbenzothiazoline-6-sulphonate) and DPPH (1,1-diphenyl-2-picrylhydrazyl) methods, according to the protocols described previously, and ascorbic acid was used as the positive control.

[2] = ABTS radical scavenging assay; conditions: mean ± SD (n = 3); NA = not active (<50% radical scavenging activity at the highest testing concentration of 200 μM); read-out: ABTS free radical scavenging activity IC50
Procedure: The antioxidant effect of the VBL constituents was assessed by besting their free radical scavenging activity with the ABTS (diammonium 2,2′-azino-bis (3-ethylbenzothiazoline-6-sulphonate) and DPPH (1,1-diphenyl-2-picrylhydrazyl) methods, according to the protocols described previously [10], and ascorbic acid was used as the positive control.

PC12 cells = experiment: Neuroprotective assay: 6-OHDA-induced PC12 cell injury, MTT; format: cell-based; conditions: for Neuroprotective effect against 6-OHDA-induced PC12 cell injury (cell viability): pretreated 12 h, 6-OHDA 150 μM for 13 h
Procedure: The cell cultures were prepared according to the method described by Sergi et al.. Briefly, the protection of compounds 1–8 on 6-hydroxydopamine (6-OHDA)-induced PC 12 cell injury was assessed by MTT (3-(4,5-dimethylthiazol-2-yl)-2,5-diphenyltetrazolium bromide) assay, and N-acetylcysteine (NAC, 50 μM) was used as the positive control. PC12 cells were cultured in RPMI 1640 medium supplemented with 10% fetal bovine serum (FBS), and they were incubated at 37
C in a humidified environment containing 5% CO2 and then cultured in 96-well plates at a density of 1.5 × 10^5 cells/well in 100 μL for 24 h. The neuron cells were first pretreated with various concentrations (25, 50, 100 μM) of tested compounds for 12 h before 6-OHDA (150 μM) treatment for further 13 h. Then, 10 μL of MTT was added to each well and incubated for another 4 h, and the crystals were dissolved with DMSO. The optical density at 490 nm was detected by a plate reader. The cell viability was lastly measured to evaluate the compounds’ protective effect, which was expressed as the percentage of the control group.

[3] = test system: NO production in RAW264.7 macrophages; experiment: NO production inhibitory assay, lipopolysaccharide-induced macrophages; format: cell-based; conditions: Mus musculus, lipopolysaccharide-induced murine macrophages, read-out: NO production inhibition IC50
Procedure: The nitric oxide (NO) production inhibitory assay was conducted in murine RAW264.7 macrophages as we recorded in an early report, with quercetin as the reference compound.

SMILES	IC50 [1] [µM]	IC50 [2] [µM]	other results
O=C1O[C@H]([C@@H](O)CO)C(O)=C1O [Ascorbic acid, ascorbic acid, reference compound]	13.3 ± 1.86	24.3 ± 0.41	–
COC1OC2CC3C(O)CC(COC(=O)C=Cc4ccc(O)cc4)(O2)C13 (stereo not shown) [Compound 1]	–	15.3 ± 1.37	Neuroprotective effect compared with the positive control NAC (PC12 cells; compound 50 μM, NAC 50 μM, 6-OHDA 150 μM): comparable to the positive control NAC; Neuroprotective effect against 6-OHDA-induced PC12 cell injury (cell viability) (PC12 cells; compound 50 μM): apparent protective activity
CO[C@@H]1O[C@@H]2C[C@@H]3[C@H]1[C@@](COC(=O)/C=C\c1ccc(O)cc1)(C[C@H]3O)O2 [Compound 2]	–	34.2 ± 3.03	–
O=C(/C=C/c1ccc(O)cc1)OC[C@@]12C[C@@H](O)[C@@H]3C[C@@H](O[C@@H](O)[C@@H]31)O2 [Compound 3]	–	35.6 ± 1.04	–
O=C(/C=C\c1ccc(O)cc1)OC[C@@]12C[C@@H](O)[C@@H]3C[C@@H](O[C@@H](O)[C@@H]31)O2 [Compound 4]	–	19.4 ± 0.24	–
COC1CC2C(O)CC(O)(COC(=O)C=Cc3ccc(O)cc3)C2C(OC)O1 (stereo not shown) [Compound 5]	–	32 ± 1.76	Neuroprotective effect against 6-OHDA-induced PC12 cell injury (cell viability) (PC12 cells; compound 50 μM): apparent protective activity
NCCc1cc(O)c(O)cc1O [Compound 6-OHDA, 6-hydroxydopamine, reference compound]	–	–	Inhibition ratio of PC12 cell viability (6-OHDA-induced cell injury) (PC12 cells; 6-OHDA at 150 μM): 52.68%
CO[C@H]1C[C@@H]2[C@H]([C@H](OC)O1)[C@@](O)(COC(=O)/C=C\c1ccc(O)cc1)C[C@H]2O [Compound 6]	–	28.2 ± 0.63	Neuroprotective effect against 6-OHDA-induced PC12 cell injury (cell viability) (PC12 cells; compound 50 μM): apparent protective activity
CO[C@H]1C[C@H]2C=C[C@](O)(COC(=O)/C=C/c3ccc(O)cc3)[C@H]2[C@H](OC)O1 [Compound 7]	–	50.6 ± 2.97	Neuroprotective effect against 6-OHDA-induced PC12 cell injury (cell viability) (PC12 cells; compound 50 μM): apparent protective activity
COC1CC2C(O)CC(O)(COC(=O)C=Cc3ccc(O)cc3)C2C(OC)O1 (stereo not shown) [Compound 8]	–	39.1 ± 2.3	–
COc1cc(CCCO)ccc1O[C@@H](CO)[C@H](O)c1cc(OC)c(O)c(OC)c1 [Compound 9a]	47.5 ± 7.24	9.39 ± 0.97	–
COc1cc(CCCO)ccc1O[C@H](CO)[C@@H](O)c1cc(OC)c(O)c(OC)c1 [Compound 9b]	52.6 ± 6.89	10.1 ± 0.67	–
COc1cc([C@H](O)[C@@H](CO)Oc2ccc(CCCO)cc2OC)ccc1O [Compound 10a, erythro-4,7,9,9′-tetrahydroxy-3,3′-dimethoxy-8,4′-oxyneolignane]	–	19.7 ± 0.61	–
COc1cc([C@@H](O)[C@H](CO)Oc2ccc(CCCO)cc2OC)ccc1O [Compound 10b, erythro-4,7,9,9′-tetrahydroxy-3,3′-dimethoxy-8,4′-oxyneolignane]	–	16.2 ± 2.65	–
COc1cc([C@@H](O)[C@@H](CO)Oc2ccc(CCCO)cc2OC)ccc1O [Compound 11a, threo-4,7,9,9′-tetrahydroxy-3,3′-dimethoxy-8,4′-oxyneolignane]	98.7 ± 1.78	12.1 ± 1.42	–
COc1cc([C@H](O)[C@H](CO)Oc2ccc(CCCO)cc2OC)ccc1O [Compound 11b, threo-4,7,9,9′-tetrahydroxy-3,3′-dimethoxy-8,4′-oxyneolignane]	105 ± 4.11	14.8 ± 1.25	–

SMILES	IC50 [1] [µM]	IC50 [2] [µM]	other results
COc1cc([C@H]2Oc3c(O)cc(CCCO)cc3[C@@H]2CO)ccc1O [Compound 12a, cedrusin]	31.2 ± 1.9	9.54 ± 0.64	–
COc1cc([C@@H]2Oc3c(O)cc(CCCO)cc3[C@H]2CO)ccc1O [Compound 12b, cedrusin]	44.3 ± 2.05	12.3 ± 0.24	–
COc1ccc([C@H]2Oc3c(O)cc(CCCO)cc3[C@@H]2CO)cc1OC [Compound 13a, 4-O-methylcedrusin]	–	21.7 ± 3.5	–
COc1ccc([C@@H]2Oc3c(O)cc(CCCO)cc3[C@H]2CO)cc1OC [Compound 13b, 4-O-methylcedrusin]	–	37.1 ± 8.17	–
COc1cc([C@@H]2Oc3c(OC)cc(CCCO)cc3[C@H]2CO)ccc1O [Compound 14a, dihydrodehydrodiconiferyl alcohol]	–	12.3 ± 1.82	IC50 [3]: 52.2 ± 6.17 µM
COc1cc([C@@H]2Oc3c(OC)cc(CCCO)cc3[C@H]2CO)ccc1O [Compound 14b, dihydrodehydrodiconiferyl alcohol]	–	14.1 ± 1.3	–
COc1cc([C@H]2Oc3c(OC)cc(CCCO)cc3[C@@H]2CO)cc(OC)c1O [Compound 15a, 5-methoxydihydrodehydrodiconiferyl alcohol]	40.4 ± 6.09	17.2 ± 0.89	–
COc1cc([C@@H]2Oc3c(OC)cc(CCCO)cc3[C@H]2CO)cc(OC)c1O [Compound 15b, 5-methoxydihydrodehydrodiconiferyl alcohol]	55.1 ± 2.43	24.2 ± 3.92	–
COc1cc(C2c3c(cc(OC)c(O)c3OC)CC(CO)C2CO)cc(OC)c1O (stereo not shown) [Compound 16a, polystachyol]	47.9 ± 6.6	11.1 ± 3.31	–
COc1cc(C2c3c(cc(OC)c(O)c3OC)CC(CO)C2CO)cc(OC)c1O (stereo not shown) [Compound 16b, polystachyol]	96.2 ± 8.34	26.2 ± 2.24	–
COc1cc(C2OC(c3ccc(O)c(OC)c3)C(CO)C2CO)ccc1O (stereo not shown) [Compound 17a, neo-olivil]	40.8 ± 5.98	5.96 ± 0.3	–
COc1cc(C2OC(c3ccc(O)c(OC)c3)C(CO)C2CO)ccc1O (stereo not shown) [Compound 17b, neo-olivil]	62.9 ± 5.65	7.75 ± 0.71	–
COc1cc(C2OC(c3cc(OC)c(O)c(OC)c3)C(CO)C2CO)cc(OC)c1O (stereo not shown) [Compound 18a, icariol A2]	17.3 ± 7.51	6.87 ± 0.54	–
COc1cc(C2OC(c3cc(OC)c(O)c(OC)c3)C(CO)C2CO)cc(OC)c1O (stereo not shown) [Compound 18b, icariol A2]	17.9 ± 4.58	–	–
COc1cc(CCCO)cc(OC)c1OC(CO)CO [Compound 22, 3-deoxyartselaenin C]	20.2 ± 3.53	168 ± 4.34	–
